Data on 19 molecules can be found in paper PMC10628895, “Conformationally Selective 2-Aminotetralin Ligands Targeting the alpha2A- and alpha2C-Adrenergic Receptors” (ACS Chemical Neuroscience, 2023).

Like-named read-outs stand apart in the source and are kept apart here.

Data set [1] has as its target T1, human wild-type α2AR (Homo sapiens, UniProt P08913).
T1 sequence (P08913 1-465): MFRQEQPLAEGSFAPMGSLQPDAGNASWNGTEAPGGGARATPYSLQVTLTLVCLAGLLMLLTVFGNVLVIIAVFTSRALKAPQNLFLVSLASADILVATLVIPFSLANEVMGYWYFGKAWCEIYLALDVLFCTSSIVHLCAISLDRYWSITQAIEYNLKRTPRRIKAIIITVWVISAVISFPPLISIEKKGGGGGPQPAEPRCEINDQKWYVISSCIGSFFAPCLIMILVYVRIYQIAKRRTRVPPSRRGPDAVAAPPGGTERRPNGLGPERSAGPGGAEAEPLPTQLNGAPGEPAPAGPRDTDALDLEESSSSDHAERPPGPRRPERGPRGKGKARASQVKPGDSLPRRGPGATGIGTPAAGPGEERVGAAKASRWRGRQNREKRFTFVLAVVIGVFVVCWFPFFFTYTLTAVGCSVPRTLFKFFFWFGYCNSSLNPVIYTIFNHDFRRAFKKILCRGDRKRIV
The data set is described as follows: Radioligand binding with [3H]rauwolscine (competition and saturation), membranes of transfected HEK293 cells. The arrangement: host or cells: mouse connective-tissue cells stably expressing the receptor.

Data set [2] has as its target T2, human wild-type α2CR (Homo sapiens, UniProt P18825).
T2 sequence (P18825 1-462): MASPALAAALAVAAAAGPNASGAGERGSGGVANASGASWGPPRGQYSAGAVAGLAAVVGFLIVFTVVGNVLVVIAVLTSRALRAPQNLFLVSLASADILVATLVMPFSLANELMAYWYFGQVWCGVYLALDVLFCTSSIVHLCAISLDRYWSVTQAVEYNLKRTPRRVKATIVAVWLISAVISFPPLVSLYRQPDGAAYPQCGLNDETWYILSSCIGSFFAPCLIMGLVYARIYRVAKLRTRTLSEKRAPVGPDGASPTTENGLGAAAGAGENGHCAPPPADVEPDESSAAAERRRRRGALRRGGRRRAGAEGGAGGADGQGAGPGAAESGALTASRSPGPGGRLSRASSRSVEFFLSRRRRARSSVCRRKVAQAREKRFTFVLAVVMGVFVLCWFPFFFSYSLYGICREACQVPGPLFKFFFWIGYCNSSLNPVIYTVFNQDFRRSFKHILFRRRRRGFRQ
The data set is described as above. On the set-up: host or cells: mouse connective-tissue cells stably expressing the receptor.

The target in data set [3] is T2, human wild-type α2CR. The description is as above. On the set-up: host or cells: mouse connective-tissue cells stably expressing the receptor. The note with it: [3H]rauwolscine competition, mean ± SD, read-out: Affinity (Ki ± SD; nM) α2CR. The procedure: Cells were grown in 10-cm plates and allowed to reach log growth phase (equivalent to about 70–90% confluency) before transfection. A transfection cocktail containing 3 mL of Opti-MEM (Gibco, Waltham, MA), 10 μg of cDNA, and 30 μL of linear polyethyleneimine “max” (molecular weight ∼ 40 000 g/mol, Polysciences Inc., Warrington, PA) was added to each plate and then incubated with an additional 3 mL of supplemented MEM for 48 h. Human wild-type α2-adrenergic GPCR clones, encoded in a pcDNA3.1(+) vector, were obtained from the cDNA Resource Center (Bloomsburg, PA). Cells were transiently transfected to express the α2AR or α2CR, and membranes were isolated for use in radioligand binding assays.
Cell membrane isolates were obtained following transfection procedure via a series of three 10-min, 12000g centrifugations homogenized via a tissue grinder. Saturation and competitive radioligand displacement assays conducted in 96-well assay plates were performed using membrane isolates. The bicinchoninic acid (BCA) protein assay (Thermo Scientific) kit was used to quantify protein expression.
Each concentration was assessed in quadruplicate, and each competitive binding assay was performed in at least three distinct replicates. Nonspecific binding was determined using 10 μM clozapine. Data were analyzed using the nonlinear regression function “One-site-Fit Ki” in Prism, wherein the Ki was calculated from the experimentally derived IC50 via the Cheng–Prusoff equation[58] [drawing 1]

In data set [4] the target is T2, human wild-type α2CR. The data set is described as follows: cAMP accumulation, LANCE Ultra cAMP TR-FRET immunoassay, cells stably expressing α2CR. The note with it: for functional activity at the α2CR (in words): cAMP formation. Background: Cyclic AMP is a second messenger, typically raised through Gs and lowered through Gi signalling.
Data set [5] deals with T1, human wild-type α2AR. Nature of the data set: cAMP accumulation, LANCE Ultra cAMP TR-FRET immunoassay, cells stably expressing α2AR. The note with it: for functional activity at the α2AR (in words): cAMP formation.
The test system of data set [6] is mouse models of autism spectrum disorder (ASD). The arrangement: method as in PMID 32566916, PMID 26011730, PMID 36473166. The conditions noted are these: orally active; cited from earlier work.
Data set [7] concerns rodents. The conditions noted are these: cited from earlier work.
The mark [8] stands for this setting: [3H]rauwolscine competition, HEK293 membranes, mean ± SD, read-out: Affinity (Ki ± SD; nM) α2AR.
Setting [9] is: read-out: Emax α2AR, percent maximum response normalized to lofexidine, mean ± SD, NC = no significant change from forskolin-established baseline signaling.

A word on the Ki: it is a measure of affinity in units of concentration, obtained from inhibition or displacement. With `CN(C)[C@@H]1CCc2c(cccc2-c2ccccc2)C1` [(R)-1], the Ki in data set [1] is 320 ± 40 nM; in data set [2], 500 ± 75 nM.

Take `CN(C)[C@@H]1CCc2c(cccc2-c2ccccc2F)C1` [(R)-2, (R)-5-(2-Fluorophenyl)-N,N-dimethyl-1,2,3,4-tetrahydronaphthalen-2-amine]: the values for the Ki in data set [1] and in data set [2] were 2500 ± 810 nM and 680 ± 120 nM, respectively.

`CN(C)[C@@H]1CCc2c(cccc2-c2ccccc2Cl)C1` [(R)-3]: the Ki was 490 ± 65 nM in data set [1] and 500 ± 86 nM in data set [2].

Regarding `Fc1ccccc1-c1cccc2c1CC[C@@H](N1CCCC1)C2` [(R)-4, (R)-1-(5-(2-Fluorophenyl)-1,2,3,4-tetrahydronaphthalen-2-yl)pyrrolidine], the Ki in data set [1] (setting [8]) came out at 1000 ± 170 nM; in data set [3] it was 1500 ± 270 nM.

As for `CCCN(CCC)[C@@H]1CCc2c(cccc2-c2ccccc2)C1` [(R)-5], the values for the Ki in data set [1] and in data set [2] were 190 ± 30 nM and 580 ± 54 nM, respectively.

Take `CCCN(CCC)[C@@H]1CCc2c(cccc2-c2ccccc2Cl)C1` [(R)-6]: the Ki was determined as 94 ± 26 nM in data set [1] and 340 ± 95 nM in data set [2].

With `CN(C)[C@@H]1CCc2c(cccc2-c2ccco2)C1` [(R)-8], the values for the Ki in data set [1] and in data set [2] were 1300 ± 330 nM and 460 ± 72 nM, respectively.

For `CN(C)[C@@H]1CCc2c(cccc2-c2cccn2C)C1` [(R)-10], the Ki in data set [1] stood at 130 ± 33 nM; in data set [2], 310 ± 39 nM.

The IC50 is the concentration at which inhibition is half-maximal. The EC50 is the concentration that produces a half-maximal response. A higher EC50 goes with a need for much substance. As a reminder, the Emax is the greatest response seen or fitted, relative to the assay's reference. Regarding `CN(C)[C@H]1CCc2c(cccc2-c2ccccc2)C1` [(S)-1], the Ki in data set [1] turned out to be 6.9 ± 1.8 nM. For the same molecule, in data set [4], the midpoint of inhibition, the IC50, lay at 370 ± 1.9 nM and the “functional activity at the α2CR (in words)” value is listed as “inverse agonism”. In addition, the inhibition constant Ki in data set [2] came to 35 ± 4.6 nM. In data set [5], the midpoint of the response, the EC50, lay at 1.4 ± 0.23 nM and the “functional activity at the α2AR (in words)” value was “agonist activity”. Also, the “Emax α2AR” value in data set [5] (percent maximum response normalized to lofexidine, mean ± SD, NC = no significant change from forskolin-established baseline signaling, listed as 1 (5-PAT)) was found to be 24 ± 4.0%. In data set [5] (setting [9]), the Emax is roughly 25%.

Consider `CN(C)[C@H]1CCc2c(cccc2-c2ccccc2F)C1` [(S)-2, (2S)-5-(2′-fluorophenyl)-N,N-dimethyl-1,2,3,4-tetrahydronaphthalen-2-amine], for which, in data set [1], the Ki is 3.5 ± 0.97 nM. In data set [4], the IC50 was 79 ± 1.7 nM and the “functional activity at the α2CR (in words)” value was “inverse agonists”. Besides, the Ki in data set [2] was determined as 19 ± 4.6 nM. In data set [5], the midpoint of the response, the EC50, lay at 0.55 ± 0.15 nM. Moreover, in data set [5] (setting [9]), the Emax amounted to 45 ± 1.9%. Also, in data set [6], the “effect in mouse models of autism spectrum disorder (in words)” value is “improves repetitive behaviors, social behaviors, anxiety behaviors, and ameliorates seizures”. In addition, the “effect on locomotor activity (in words)” value in data set [7] was “did not impact locomotor activity”.

Regarding `CN(C)[C@H]1CCc2c(cccc2-c2ccccc2Cl)C1` [(S)-3], the Ki in data set [1] came out at 5.1 ± 0.52 nM. Moreover, in data set [4], the IC50 was found to be 130 ± 2.4 nM and the “functional activity at the α2CR (in words)” value is reported as “inverse agonists”. For the same molecule, in data set [2], the Ki turned out to be 17 ± 4.1 nM. Also, in data set [5], the EC50 turned out to be 1.3 ± 0.18 nM. Moreover, the Emax in data set [5] (setting [9]) came out at 47 ± 2.9%.

As to `Fc1ccccc1-c1cccc2c1CC[C@H](N1CCCC1)C2` [(S)-4, (S)-1-(5-(2-Fluorophenyl)-1,2,3,4-tetrahydronaphthalen-2-yl)pyrrolidine], the Ki in data set [1] (setting [8]) was found to be 5.7 ± 1.4 nM. In data set [4], 48 ± 1.8 nM corresponded to half-maximal inhibition (IC50) and the “functional activity at the α2CR (in words)” value was “inverse agonists”. Besides, in data set [4] (inverse agonist potency), the “fold higher potency than 5-PAT at the α2CR” value is listed as “about 9 fold”, the “fold higher potency than CPT at the α2CR” value was roughly 3 fold and the “fold higher potency than FPT at the α2CR” value is given as “about 2 fold”. The Ki in data set [3] stood at 5.2 ± 0.3 nM. Besides, the EC50 in data set [5] worked out at 1.1 ± 0.16 nM. Moreover, the Emax in data set [5] (read-out: Emax α2AR) was determined as 46 ± 3%.

Consider `CCCN(CCC)[C@H]1CCc2c(cccc2-c2ccccc2)C1` [(S)-5], for which the Ki in data set [1] amounted to 180 ± 19 nM; in data set [2], 370 ± 14 nM.

With `CCCN(CCC)[C@H]1CCc2c(cccc2-c2ccccc2Cl)C1` [(S)-6], the Ki in data set [1] came to 67 ± 11 nM; in data set [2] it was 280 ± 20 nM.

The molecule `CN(C)[C@H]1CCc2c(cccc2-c2cccc3ccccc23)C1` [(S)-7] showed a Ki in data set [1] of 27 ± 6.3 nM. In addition, in data set [4], the IC50 turned out to be 260 ± 44 nM and the “functional activity at the α2CR (in words)” value is “inverse agonism”. Further, the “fold less efficacious than the other 5-SATs at the α2CR” value in data set [4] (inverse agonist efficacy) is listed as “roughly 2 fold”. Further, the Ki in data set [2] came out at 180 ± 38 nM. Besides, in data set [5], the EC50 came to 82 ± 8.3 nM and the “functional activity at the α2AR (in words)” value is on record as “agonist activity”. Moreover, the “fold less potent than FPT at the α2AR” value in data set [5] (agonist potency) was found to be 150 fold. Further, the Emax in data set [5] (setting [9]) came to 14 ± 4.3%.

Consider `CN(C)[C@H]1CCc2c(cccc2-c2ccco2)C1` [(S)-8], for which the Ki in data set [1] is 59 ± 1.4 nM; in data set [2], 150 ± 3.5 nM.

For `CN(C)[C@H]1CCc2c(cccc2-c2cccs2)C1` [(S)-9], in data set [1], the Ki stood at 6.2 ± 1.5 nM and the “fold higher affinity compared to the FAT compound at α2AR” value was 5–10 fold. Also, the “functional activity at the α2CR (in words)” value in data set [4] was “neutral antagonist”. In data set [2], the Ki was determined as 48 ± 0.57 nM. Moreover, in data set [5], the “functional activity at the α2AR (in words)” value is “no significant change over baseline”.

Take `CN(C)[C@H]1CCc2c(cccc2-c2cccn2C)C1` [(S)-10]: the values for the Ki in data set [1] and in data set [2] were 12 ± 0.41 nM and 50 ± 4.1 nM, respectively. The “fold higher affinity compared to the FAT compound at α2AR” value in data set [1] is on record as 5–10 fold. Besides, the values for the IC50 in data set [4] and in data set [5] were 92 ± 5.9 nM and 11 ± 0.26 nM, respectively. Moreover, the “functional activity at the α2AR (in words)” value in data set [5] is reported as “inverse agonist”.

As to `CC(Oc1c(Cl)cccc1Cl)C1=NCCN1` (centres unmarked) [Lofexidine, reference compound], in data set [4], a half-maximal effect (EC50) was put at 4.9 ± 1.2 nM and the “functional activity at the α2CR (in words)” value is on record as “agonist”. Moreover, in data set [4] (read-out: Emax α2CR), the Emax amounted to 100 ± 3.4%. In data set [3], the Ki is 22 ± 4.6 nM.
